Series [1] has as its system panel of 12 E. coli isolates. Also noted: method as in PMID 29032026. The following applies: abbreviated panel of E. coli strains; cited from earlier work.
Series [2] relates to E. coli^WT (ATCC 25922). More on the design: method as in PMID 29032026. The following applies: cited from earlier work.
Another series concerns E. coli^WT. Nature of the series: Time-kill kinetics, E. coli.
A further series relates to A. baumannii^WT. The series is described as follows: Time-kill kinetics, A. baumannii.
The subject of a further series is E. coli ATCC 25922. Nature of the series: MIC, wild-type E. coli ATCC 25922. In kind it is cell-based, Escherichia coli. The following applies: Escherichia coli, ATCC25922; E. coli ATCC 25922; read-out: MIC E. coli^WT.
The subject of the next series is E. coli SKM18. Nature of the series: microbe, parasite or virus in culture. In kind it is cell-based, Escherichia coli.
The subject of another series is E. coli ELZ4251. Nature of the series: MIC, clinical isolate E. coli ELZ4251. Type of series: cell-based. The settings on record: Escherichia coli, read-out: MIC E. coli^R2.
Series [3] concerns Acinetobacter baumannii ATCC BAA-747. The series is described as follows: MIC, wild-type A. baumannii. In kind it is cell-based. The following applies: Acinetobacter baumannii, ATCCBAA747; A. baumannii ATCC BAA-747; read-out: MIC A. bau^WT.
The next series has as its system A. baumannii MMX2240. The series is described as follows: MIC, fluoroquinolone resistant A. baumannii. In kind it is cell-based, Acinetobacter baumannii. The settings on record: Acinetobacter baumannii.
Series [4] deals with Klebsiella pneumoniae ATCC 35657. Nature of the series: MIC, wild-type K. pneumoniae. In kind it is cell-based. The following applies: Klebsiella pneumoniae, ATCC35657; K. pneumoniae ATCC 35657; read-out: MIC K. pneu^WT.
Another series has as its target E. coli DNA gyrase (Escherichia coli, UniProt P0AES4+P0AES6). The series is described as follows: biochemical. The settings on record: E. coli DNA gyrase IC50.
A further series addresses human topoisomerase II (Homo sapiens, UniProt P11388). Nature of the series: Human topoisomerase II decatenation assay. In kind it is biochemical. The settings on record: Supplemental Table 1; read-out: Human Topo II IC50.
For series [5], the system named is panel of 12 E. coli isolates. Nature of the series: Susceptibility testing, 12 E. coli isolates. Type of series: cell-based, Escherichia coli. The settings on record: 12 strains.
Series [6] concerns panel of 12 A. baumannii isolates. Nature of the series: Susceptibility testing, 12 A. baumannii isolates. In kind it is cell-based, Acinetobacter baumannii. The following applies: 12 strains.
The test system of series [7] is E. coli^WT (ATCC 25922). The series is described as follows: Mouse septicemia model. Type of series: in vivo, CD-1 mice. The settings on record: 96 h.
Series [8] can be described thus: Pharmacokinetics in CD-1 mice. The following applies: CD-1, mouse, plasma.
A short description of series [9]: Mouse plasma protein binding, equilibrium dialysis.
Series [10] deals with E. coli DNA gyrase^SD-LY (GyrA S83L, D87Y) (Escherichia coli, UniProt P0AES4+P0AES6, D87Y/S83L). Type of series: biochemical. The settings on record: IC50 ratio.
Another series deals with E. coli 1609. The series is described as follows: MIC, wild-type E. coli 1609. The settings on record: Escherichia coli, read-out: MIC E. coli^WT2. Type of series: cell-based.
In the next series the test system is E. coli SKM11. Type of series: cell-based, Escherichia coli.
A short description of another series: in vivo. The settings on record: CD-1, mouse, iv, 3 mg/kg.

In brackets after ≈: the same amount, converted by molar mass. Where a name gives a salt, the structure may show the parent alone. Marks after values point to notes of the source that are not given here.

Sequence of human topoisomerase II (P11388 whole entry): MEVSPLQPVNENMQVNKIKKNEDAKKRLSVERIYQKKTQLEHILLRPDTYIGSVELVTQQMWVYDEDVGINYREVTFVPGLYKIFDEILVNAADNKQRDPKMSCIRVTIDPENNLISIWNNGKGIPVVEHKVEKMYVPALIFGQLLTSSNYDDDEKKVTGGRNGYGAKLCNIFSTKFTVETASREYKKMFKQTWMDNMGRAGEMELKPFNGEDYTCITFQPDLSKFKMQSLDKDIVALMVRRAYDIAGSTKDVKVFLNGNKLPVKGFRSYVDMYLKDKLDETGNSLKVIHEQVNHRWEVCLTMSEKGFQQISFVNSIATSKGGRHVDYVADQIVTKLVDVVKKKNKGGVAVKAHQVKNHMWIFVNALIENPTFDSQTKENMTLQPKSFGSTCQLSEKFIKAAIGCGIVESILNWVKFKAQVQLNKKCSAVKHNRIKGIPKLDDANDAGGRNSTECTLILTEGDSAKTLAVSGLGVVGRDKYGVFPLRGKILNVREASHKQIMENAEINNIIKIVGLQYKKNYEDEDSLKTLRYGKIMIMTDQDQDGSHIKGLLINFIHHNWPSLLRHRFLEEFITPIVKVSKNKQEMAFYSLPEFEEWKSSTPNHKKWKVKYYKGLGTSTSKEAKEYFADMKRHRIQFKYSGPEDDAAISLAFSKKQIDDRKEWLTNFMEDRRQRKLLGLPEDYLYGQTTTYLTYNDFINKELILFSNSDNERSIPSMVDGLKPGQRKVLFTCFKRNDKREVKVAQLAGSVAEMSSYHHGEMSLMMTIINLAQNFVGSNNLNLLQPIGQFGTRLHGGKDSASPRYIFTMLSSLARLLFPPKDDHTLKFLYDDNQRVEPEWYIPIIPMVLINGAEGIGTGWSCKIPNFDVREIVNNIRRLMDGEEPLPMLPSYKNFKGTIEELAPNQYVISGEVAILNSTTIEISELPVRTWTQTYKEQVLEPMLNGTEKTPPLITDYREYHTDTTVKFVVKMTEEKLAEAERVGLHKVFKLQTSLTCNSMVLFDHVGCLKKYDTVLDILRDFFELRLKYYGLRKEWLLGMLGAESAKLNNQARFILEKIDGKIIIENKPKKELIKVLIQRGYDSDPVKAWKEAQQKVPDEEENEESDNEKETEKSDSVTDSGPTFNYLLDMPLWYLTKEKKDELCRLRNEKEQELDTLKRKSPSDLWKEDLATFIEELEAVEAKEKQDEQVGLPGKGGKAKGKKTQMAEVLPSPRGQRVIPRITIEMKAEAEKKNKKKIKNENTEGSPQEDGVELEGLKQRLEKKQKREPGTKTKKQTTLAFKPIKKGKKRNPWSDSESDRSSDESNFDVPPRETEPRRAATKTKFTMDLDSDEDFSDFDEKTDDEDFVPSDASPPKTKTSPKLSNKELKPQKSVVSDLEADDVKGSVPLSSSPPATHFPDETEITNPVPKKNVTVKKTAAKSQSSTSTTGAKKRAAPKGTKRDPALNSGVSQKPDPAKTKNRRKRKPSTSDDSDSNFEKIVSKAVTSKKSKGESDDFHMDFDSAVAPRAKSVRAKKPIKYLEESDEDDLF

Take `CCc1c(-c2ccc(N3C[C@@H]4[C@@H](N)[C@@H]4C3)cc2)[nH]c(=O)c(C(=O)O)c1O` [Compound 1b]: in series [1], the “MIC90 E. coli” value is 8 µg/mL (≈ 22.5 µM). In the series on E. coli^WT (ATCC 25922) [2], the “efficacy in a murine septicemia model” value is “demonstrated efficacy”.
In the case of `CCc1c(-c2ccc3c(c2)cc(CN2CCC2)n3C)[nH]c(=O)c(C(=O)O)c1O` [Compound 2m, 6-(2-(Azetidin-1-ylmethyl)-1-methyl-1H-indol-5-yl)-5-ethyl-4-hydroxy-2-oxo-1,2-dihydropyridine-3-carboxylic Acid Hydrochloride], the “mode of bacterial inhibition (time–kill kinetics)” value in the series with E. coli^WT (E. coli^WT, several concentrations) is on record as “concentration-dependent bactericidal activity”; in the series with A. baumannii^WT (A. baumannii^WT, several concentrations), “concentration-dependent bactericidal activity”. Further, the “reduction in the number of CFUs” value is recorded as “more than 3 log10 units” in the series on E. coli^WT (concentrations above the MIC, within ∼2 h) and about 2 log10 units in the series with A. baumannii^WT (above 2-fold of the MIC, within ∼2 h).
As usually defined, the IC50 is the concentration that inhibits the measured activity by half. One may read the MIC90 as an inhibitory concentration at the 90% level, which refers to growth in some studies and to a panel of isolates in others. The MIC50 is an inhibitory concentration at the 50% level, which refers to growth in some studies and to a panel of isolates in others. A higher MIC50 goes with lower susceptibility. As usually defined, the AUC(0-t) is exposure summed from dosing to a finite time, without extrapolation to infinity. A higher AUC(0-t) goes with high exposure. Usually clearance stands for the volume of plasma or blood freed of the substance per unit of time. A higher clearance goes with efficient removal. As usually defined, the half-life is how long it takes for the measured level to halve. As a reminder, the bioavailability is dose-corrected exposure relative to a reference, in per cent. As usually defined, the fraction unbound is the share of the substance not bound to proteins or other matrix. Read a low fraction unbound as extensive binding. For `CCC(C)NCc1cc2cc3c(cc2n1C)OCCc1c-3[nH]c(=O)c(C(=O)O)c1O.Cl` (centres unmarked) [Compound 6o, 10-((sec-Butylamino)methyl)-4-hydroxy-9-methyl-2-oxo-2,5,6,9-tetrahydro-1H-pyrido[2′,3′:4,5]oxepino[3,2-f]indole-3-carboxylic Acid Hydrochloride], the MIC was 0.78 µg/mL in the series with E. coli ATCC 25922; 0.78 µg/mL with E. coli SKM18 (Escherichia coli, SKM18, read-out: MIC E. coli^R1, E. coli SKM18); 2 µg/mL with E. coli ELZ4251; 1.6 µg/mL in series [3]; 0.78 µg/mL against A. baumannii MMX2240; 1 µg/mL in [4]. Also, in series [5] (Escherichia coli, read-out: E. coli MIC range), the MIC fell in the range of 0.12 to 1 µg/mL. Also, the IC50 against E. coli DNA gyrase was 110 nM; at human topoisomerase II, over 100000 nM. For the same compound, the “E. coli MIC90” value in series [5] (Mueller Hinton II broth) turned out to be 1 µg/mL. Also, the MIC90 was in the range of 0.5 to 1 µg/mL in series [5] (Escherichia coli, Mueller Hinton II broth, read-out: E. coli MIC90) and 8 to 16 µg/mL in [6] (Acinetobacter baumannii, Mueller Hinton II broth, read-out: A. baumannii MIC90). The values for the MIC50 in [5] (Escherichia coli) and in [6] (Acinetobacter baumannii) were 1 µg/mL and 2 µg/mL, respectively. In series [6] (Mueller Hinton II broth), the “A. baumannii MIC90” value was determined as 8 µg/mL. Further, the responders at 20 mg/kg with E. coli^WT (ATCC 25922) [7] (Mus musculus, iv, read-out: survival) is 100%. Besides, in [8] (iv, 10 mg/kg, pH 8), the AUC(0-t) is 3440 ng·h/mL. The clearance in series [8] (iv, 10 mg/kg, pH 8) came to 48 mL/min/kg. The compound further showed a half-life in [8] (iv, 10 mg/kg, pH 8) of 2.1 h. Also, in series [8] (po), the bioavailability was 41%. The same compound returned a fraction unbound at 1 μM in series [9] of 0.23.
On to `O=C(O)c1cn(C2CC2)c2cc(N3CCNCC3)c(F)cc2c1=O` [ciprofloxacin], for which the MIC came out at 0.012 µg/mL (≈ 0.0362 µM) in the series on E. coli ATCC 25922 and 0.024 µg/mL (≈ 0.0724 µM) in the series with E. coli 1609. Also, in the series on E. coli SKM18 (E. coli SKM18), the “MIC E. coli^R1” value is over 250 µg/mL. In addition, the “increase in MIC against E. coli^R1” value with E. coli SKM18 (additional Topo IV mutations, vs E. coli^R3) is recorded as about 250 fold. Besides, the “reduction in activity against DNA gyrase^SD-LY compared to DNA gyrase^WT” value in series [10] is on record as “greater than 13 fold”. In addition, the “increase in MIC against E. coli^R3” value in the series with E. coli SKM11 is on record as 32 fold.
Turning to `COc1c(N2C[C@@H]3CCCN[C@@H]3C2)c(F)cc2c(=O)c(C(=O)O)cn(C3CC3)c12` [moxifloxacin, reference compound], in the series on E. coli^WT (ATCC 25922) [7] (neutropenic mice, E. coli^WT 100 × LD50, 3 mg/kg at 1 and 5 h postinfection (b.i.d.)), the survival was 100 ^n %. This compound displayed an AUC(0-t) at 24 h in the series “in vivo” of 640 ng·h/mL.

Source of the values: publication PMC5991783, “Discovery and Optimization of Indolyl-Containing 4-Hydroxy-2-Pyridone Type II DNA Topoisomerase Inhibitors Active against Multidrug Resistant Gram-negative Bacteria” (Journal of Medicinal Chemistry, 2018).
